How the values were obtained:
6×MGA-mGFP = test: In vitro fluorescence enhancement of MGD2 with 6×MGA-mGFP mRNA; type: binding
Procedure: (§1) AcGFP mRNA appended with one or six copies of the aptamer sequence at the 5′ end, referred to as 1×MGA-mGFP and 6×MGA-mGFP, respectively, was transcribed.
(§2) A solution of 30 μM of MGD2 was mixed with 4 μM of the corresponding mRNA in 1×PBS (1.54 mM potassium monobasic, 155.17 mM sodium chloride, and 2.71 mM sodium phosphate dibasic with pH=7.2) and incubated at room temperature for 20 min. For comparison, a solution of MGD2 without any RNA was also prepared in 1×PBS. The fluorescence of these solutions was measured using a BioTek Cytation™ 5 plate reader with ex=620±20 nm and em=680±20 nm. The average fluorescence value from replicate experiments was used to calculate fluorescence enhancement.

[1] = test system: cellular RNA extracted from HeLa cells; test: Determination of MGD2 selectivity in cellular RNA (agarose gel); type: biochemical; conditions: 10 min UV
Procedure: To determine the selectivity of MGD2 labeling, 6MGA-mGFP (200 ng) was spiked in into cellular RNA extracted from HeLa cells (400 ng) in 1×PBS. […] After 10 min of UV irradiation, the sample was mixed with equal volume of 50% glycerol solution and heated to 70° C. to denature the RNA. This sample was loaded on to 1% agarose gel containing 1% v/v Clorox® bleach2 and Sybr Gold™. After running the gel for 1 h at a constant 100 V, the gel was frozen with dry ice for 10 min and imaged using GE Amersham Typhoon™. This freezing step enhanced the fluorescence output of the malachite green molecule.
Experiments were performed to determine whether this would create problematic background signal during imaging. […] The collective observations from these experiments served as guidelines for irradiation time and dye concentrations used in subsequent cellular labeling experiments.

1×MGA-mGFP = test: In vitro fluorescence enhancement of MGD2 with 1×MGA-mGFP mRNA; type: binding
Procedure: as §1
(§3) The effect of UV-irradiation on the fluorescence enhancement was investigated.
as §2

[2] = test system: control mGFP mRNA that does not contain the aptamer sequence; test: Effect of UV-irradiation on fluorescence of MGD2 with control mRNA; type: binding; conditions: up to 15 minutes of UV-irradiation
Procedure: as §3, §2

Neuro-2a cells [3] = test: Fixed-cell imaging of MGA-functionalized mCDK6 in stress granules; type: cell-based, Mouse
Excerpt: Fixed cell experiments enable direct comparisons to FISH and validate labeling of the target RNA in cells. As a biological context for testing the labeling method, stress granules were selected. In response to stress conditions, cells form non-membrane-bound cytosolic […] RNA-protein assemblies to stall the translation of mRNA until the cells are no longer under stress. While most mRNAs can be concentrated to stress granules, different mRNAs have vastly distinct localization efficiencies. Using FISH, experiments indicate that the CDK6 mRNA is highly enriched in stress granules of mammalian cells CDK6 was used as a model system to fluorescently label and image the unique distribution pattern of the mRNA. Both the 6× and 1×MGA sequences were inserted at the 5′ end of the transcript, and the construct was placed under the control of the cytomegalovirus (CMV) promoter (FIG. 2A). Mouse neuroblastoma Neuro-2a cells were then transfected with these plasmids and incubated with 30 μM MGD2 for 20 min. The cells were then irradiated using 365 nm UV light to allow for covalent labeling of the aptamer. The media was replaced to washout excess dye, and cell stress conditions were induced by 45 min of arsenite exposure, a well characterized paradigm to induce formation of stress granules. Following fixation and immunofluorescence labeling of the stress granule marker protein (G3BP1), the cells were imaged using confocal microscopy.
To validate that the fluorescence signal observed was arising from labeling of the target CDK6 mRNA, the Neuro-2a cells were simultaneously incubated with FISH probes complementary to the CDK6 sequence but bearing a spectrally orthogonal fluorophore. This experiment also enabled us to directly compare the sensitivity of the MGA/MGD2 system to the commonly used FISH technique for RNA labeling in fixed cells. Following arsenite stress, MGD2 labeling, and cell fixation, the cells were incubated with our custom FISH probes. […] That may be because during FISH labeling, the fluorescent probe is hybridized after the RNA of interest is localized to granules. […]

[4] = Fluorescence of MGD2 without any RNA in 1×PBS; type: physicochemical; conditions: MGD2 without RNA in 1×PBS; 30 μM MGD2; ex=620±20 nm, em=680±20 nm
Procedure: as §2

Neuro-2a cells [5] = test: Live cell imaging of mRNA in stress granules; type: cell-based, Mouse
Procedure: Experiments were performed to determine whether the MGD2/MGA system would be suitable for live cell imaging of endogenous mRNA localization and dynamics. Moreover, experiments were performed to determine whether one could simultaneously track the real-time localization properties of both RNA and proteins within a living cell. For this assay, Neuro-2a cells were co-transfected with expression plasmids for 1×MGA-mCDK6 and dual GFP-tagged G3BP1 protein. The expressed mRNA was labeled with MGD2 and photo crosslinked. The cells were then imaged to record the spatiotemporal features of both mRNA and protein in stress granules. […] Monitoring the signal intensity, the fluorescent signal generated from the MGD2 labeled granules was observed and remained consistent over >25 min of imaging.
After observing the motility and maturation of the granules, experiments were performed to determine whether one could also observe their dissolution. In mammalian cells, stress granules disassemble in the presence of small aliphatic molecules that disrupt weak hydrophobic interactions. Therefore, 1,6-hexanediol, an aliphatic alcohol commonly used for disassembly of stress granules was added. After arsenite-induced stress granule formation, the cells were incubated in 5% 1,6-hexanediol solution. The fluorescence signal of the labeled 1×MGA-mCDK6 was observed. […]

[6] = 6×MGA-mGFP in the presence of MGD2
[7] = 6MGA-mGFP 200 ng in 400 ng HeLa RNA, MGD2 50 μM
[8] = 1×MGA-mGFP in the presence of MGD2

Row | SMILES | emission maximum (6×MGA-mGFP; [6]) [nm] | excitation maximum (6×MGA-mGFP; [6]) [nm] | fluorescence enhancement (6×MGA-mGFP; MGD2 bound to 6×MGA-mGFP, prior to UV-irradiation) [fold] | labeling of aptamer functionalized mRNA spiked into cellular RNA [1, 7] | labeling of cellular RNA [1, 7] | labeling of other cellular RNAs (bands in the MG channel) ([1]; MGD2 30 μM with 6×MGA-mGFP in presence of cellular RNA) | emission maximum (1×MGA-mGFP; [8]) [nm] | excitation maximum (1×MGA-mGFP; [8]) [nm] | fluorescence enhancement after UV irradiation (1×MGA-mGFP; 1×MGA-mGFP, after 15 minutes of UV irradiation (stabilized)) | fluorescence enhancement (1×MGA-mGFP; MGD2 bound to 1×MGA-mGFP, prior to UV-irradiation) [fold] | fluorescence enhancement with control mRNA [2] | difference in fluorescence intensity of cytoplasmic mRNA granules, 1×MGA versus 6×MGA (Neuro-2a cells [3]; 1×MGA reduced versus 6×MGA-functionalized mRNA) [fold] | sensitivity of RNA detection compared with FISH (Neuro-2a cells [3]; 1×MGA- and 6×MGA-functionalized mRNAs, FISH probes complementary to CDK6) | labeling in control cells (Neuro-2a cells [3]; cells transfected with CDK6 lacking the MGA sequence, MGD2 and UV irradiation) | fluorescence output (mean) [4] | effect on RNA granules (Neuro-2a cells [5]; 5% 1,6-hexanediol, labeled 1×MGA-mCDK6) | incubation time after which signal from the protein granules disappeared (Neuro-2a cells [5]; 5% hexanediol, after arsenite-induced stress granule formation) [min]
1 | CN(C)c1ccc(C(=C2C=CC(=[N+](C)C)C=C2)c2ccc(NC(=O)CCC3(C)N=N3)cc2)cc1 [MGD2, N-(4-((4-(dimethylamino)phenyl)(4-(3-(3-methyl-3H-diazirin-3-yl) Propan amido)phenyl)methylene)cyclohexa-2,5-dien-1-ylidene)-N-methylmethanaminium Chloride] | 660 | 625 | > 1000 | selectively labeled the aptamer functionalized mRNA | did not have any detectable labeling of cellular RNA | no bands from labeling of other cellular RNAs | 660 | 625 | approximately 140 fold | 251 | did not result in any detectable fluorescence enhancement | ~2 | higher sensitivity for RNA detection than FISH | did not show any labeling | 6.25 |  | 
2 | OCCCCCCO [1,6-hexanediol] |  |  |  |  |  |  |  |  |  |  |  |  |  |  |  | most of the RNA granules exhibited a more sustained structural integrity | 7

Source: patent US20210277399A1, “Methods of Imaging and Tracking Nucleic Acids in Cells” (Emory University, priority 2020, published 2021)
